In patent US7179614B2, “Screening methods to identify compounds that modulate type I phosphodiesterase (PDE) activity” (Mount Sinai School of Medicine, priority 2000, dated 2007):
pIC50: −log10 of the molar value.

How the values were obtained:
[1] = test system: PDE1A present in fractions 6 and 11; test: PDE assay on anion exchange fractions 6 and 11 of taste tissue; format: biochemical, bovine
Procedure: (§1) Preparation of taste extract. 1–2 gm circumvallate taste papillae or fungiform papillae from fresh bovine tongues were dissected and homogenized in a buffer containing 20 mMTris-Cl pH 7.5, 1 mM EDTA, 1 mM DTT, 10% glycerol, 10 μg/ml leupeptin, 10 μg/ml aprotinin, 100 μM AEBSF and 10 μg/ml pepstatin. Homogenization was carried out using a Polytron homogenizer. The homogenate was first spun at 2500×g for 10 minutes at 4° C. and the resulting supernatant was spun at 100,000×g for 30 minutes at 4° C. The supernatant of the second spin was checked for PDE activity and fractionated by anion exchange chromatography.
(§2) Anion Exchange Chromatography. Supernatant prepared from taste papillae was loaded at 1 ml/min on a DEAE-10 anion exchange column which had been equilibrated with buffer A (20 mM Tris-HCl pH 7.5, 2 mM EDTA, 20 mM β-mercapto ethanol). The column was washed in buffer A for 15 minutes or until protein was no longer detected in the buffer. Bound protein activity was eluted at a flow rate of 2 ml/min with a linear gradient (0–100%) of buffer B (buffer A+1 M NaCl) over 45 minutes Fractions were collected at 4° C. and assayed for PDE Activity. Aliquots of each fraction were boiled in sample buffer for Western blot analysis.
(§3) PDE Assays and CaM Affinity on Beads. PDE assays followed established procedures (Sonnenburg et al., Methods 1998, 14:3–19). All assays were performed at 30° C. using either 1 μM cAMP or between 0.2 and 1 μM cGMP as substrate in the presence of 1 mM EGTA (basal), 1 mM CaCl2 plus 4 μg/ml CaM (Ca^2+/CaM) or 100 μM effector activation peptide (Gαt-rod) peptide.
Specificity of the calmodulin affinity beads was checked by doing an affinity chromatography purification in the presence of 2 mM EGTA instead of CaCl2. The beads were incubated with the appropriate fractions at 4° C. for 1 hour, then spun for 2 minutes and the supernatant and pellet kept separately. The beads were then washed in the same buffer and resuspended in the presence of protease inhibitors. PDE activity was checked on the beads and in the supernatant. CaCl2 was compensated in the PDE assays when the CaM affinity was done in presence of excess EGTA.

PDE 1 = settings: Yan et al., J. Biol. Chem. 1996; cited from earlier work
PDE1A2 = molecular target: T1, PDE1A2 (Bos taurus, UniProt P14100); test: PDE assay of recombinant PDE over-expressed in HEK-293 cells; format: biochemical; settings: HEK-293 cell homogenate; cGMP substrate; 100 μM peptide or 1 mM CaCl2 and 4 μg/ml CaM
T1 construct: made in house; host or cells: HEK 293 cells, transient transfection, sonicated lysate
Procedure: as §3
(§4) Over-expression and Assay of Recombinant PDEs. HEK 293 cells were cultured in Eagle's MEM with 2 mM […], Earle's balanced salt solution, 1.5 g/L sodium bicarbonate, 0.1 mM non-essential amino acids, 1 mM sodium pyruvate, and 10% heat-inactivated fetal calf serum. HEK 293 cells were seeded at 0.5×10^6 per well in a 6 well dish. After 24 hours, cells were transfected with DNA constructs using Gene Porter (Gene Therapy Systems), a lipid-based transfection reagent. Cells were transfected with 6 μg DNA (PDE1A1, PDE1A2 or PDE1C3) and 30 μl transfection reagent in serum free media in a volume of 1 ml. After 5 hours, the cells were supplemented with 1 ml media containing twice serum. 24 hours later, the cells were harvested by rinsing twice with PBS, scraping the cells into 200 μl of buffer containing 20 mM Tris-Cl pH 7.5, protease inhibitors (Sigma P- 8340), 1 mM 4-(2-aminoethyl) benzenesulfonyl fluoride (AEBSF), 15 μM pepstatin A, 14 μM trans-epoxysuccinyl-L-leucylamido(4-guanidino) butane (E-64), 40 μM bestatin, 22 μM leupeptin, and 0.8 μM aprotinin. Cells were sonicated in 3 five second bursts at approximately 10 Watts, and the lysates were used as the source of enzyme in the PDE assay.

PDE1A1 = molecular target: T2, PDE1A1 (Bos taurus, UniProt P14100); test: as above; format: biochemical; settings: HEK-293 cell homogenate; cGMP substrate; 100 μM peptide or 1 mM CaCl2 and 4 μg/ml CaM
T2 construct: made in house; host or cells: HEK 293 cells, transient transfection, sonicated lysate
Procedure: as §3, §4

PDE1C3 = molecular target: T3, PDE1C3 (Homo sapiens, UniProt Q14123); test: as above; format: biochemical; settings: HEK-293 cell homogenate; cGMP substrate; 100 μM peptide or 1 mM CaCl2 and 4 μg/ml CaM
T3 construct: made in house; host or cells: HEK 293 cells, transient transfection, sonicated lysate
Procedure: as §3, §4

[2] = test system: PDEs in bovine taste tissue fractions; test: PDE assay across anion exchange fractions of taste papillae extract; format: biochemical; settings: 100 μM peptide or 1 mM CaCl2 and 4 μg/ml CaM; for stimulation of cGMP hydrolytic activity: 1 μM cGMP; for stimulation of cAMP hydrolysis: 1 μM cAMP
Procedure: as §1, §2, §3

T1 sequence (P14100 whole entry): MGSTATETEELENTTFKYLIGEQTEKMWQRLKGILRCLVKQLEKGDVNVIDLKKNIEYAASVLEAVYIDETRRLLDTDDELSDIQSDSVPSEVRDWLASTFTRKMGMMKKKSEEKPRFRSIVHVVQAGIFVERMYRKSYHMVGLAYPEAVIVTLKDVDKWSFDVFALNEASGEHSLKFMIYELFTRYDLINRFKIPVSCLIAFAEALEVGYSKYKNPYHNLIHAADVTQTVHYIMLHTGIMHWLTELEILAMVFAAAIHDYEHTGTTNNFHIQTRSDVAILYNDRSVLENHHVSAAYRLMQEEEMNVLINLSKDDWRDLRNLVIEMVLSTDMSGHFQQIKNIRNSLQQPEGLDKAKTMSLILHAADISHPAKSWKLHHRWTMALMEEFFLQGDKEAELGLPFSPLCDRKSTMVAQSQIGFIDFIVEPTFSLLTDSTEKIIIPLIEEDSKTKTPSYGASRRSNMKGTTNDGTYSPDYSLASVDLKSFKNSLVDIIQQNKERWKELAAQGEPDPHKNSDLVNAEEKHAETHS
T2 sequence (P14100 1-514 isoform P14100-2): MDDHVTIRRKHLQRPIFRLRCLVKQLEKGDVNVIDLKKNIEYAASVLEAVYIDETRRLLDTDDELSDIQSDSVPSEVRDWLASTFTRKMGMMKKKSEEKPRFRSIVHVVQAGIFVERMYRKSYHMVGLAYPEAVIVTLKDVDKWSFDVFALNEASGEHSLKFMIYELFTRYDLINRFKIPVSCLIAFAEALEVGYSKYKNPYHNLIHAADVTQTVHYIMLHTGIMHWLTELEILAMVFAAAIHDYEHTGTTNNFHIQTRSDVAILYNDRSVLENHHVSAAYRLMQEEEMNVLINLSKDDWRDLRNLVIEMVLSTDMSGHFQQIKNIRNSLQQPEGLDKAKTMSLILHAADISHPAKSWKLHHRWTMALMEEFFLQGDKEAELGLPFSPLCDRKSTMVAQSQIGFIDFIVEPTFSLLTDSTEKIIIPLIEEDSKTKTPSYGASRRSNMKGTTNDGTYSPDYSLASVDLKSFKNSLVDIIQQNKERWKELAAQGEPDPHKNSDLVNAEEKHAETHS
T3 sequence (Q14123 whole entry): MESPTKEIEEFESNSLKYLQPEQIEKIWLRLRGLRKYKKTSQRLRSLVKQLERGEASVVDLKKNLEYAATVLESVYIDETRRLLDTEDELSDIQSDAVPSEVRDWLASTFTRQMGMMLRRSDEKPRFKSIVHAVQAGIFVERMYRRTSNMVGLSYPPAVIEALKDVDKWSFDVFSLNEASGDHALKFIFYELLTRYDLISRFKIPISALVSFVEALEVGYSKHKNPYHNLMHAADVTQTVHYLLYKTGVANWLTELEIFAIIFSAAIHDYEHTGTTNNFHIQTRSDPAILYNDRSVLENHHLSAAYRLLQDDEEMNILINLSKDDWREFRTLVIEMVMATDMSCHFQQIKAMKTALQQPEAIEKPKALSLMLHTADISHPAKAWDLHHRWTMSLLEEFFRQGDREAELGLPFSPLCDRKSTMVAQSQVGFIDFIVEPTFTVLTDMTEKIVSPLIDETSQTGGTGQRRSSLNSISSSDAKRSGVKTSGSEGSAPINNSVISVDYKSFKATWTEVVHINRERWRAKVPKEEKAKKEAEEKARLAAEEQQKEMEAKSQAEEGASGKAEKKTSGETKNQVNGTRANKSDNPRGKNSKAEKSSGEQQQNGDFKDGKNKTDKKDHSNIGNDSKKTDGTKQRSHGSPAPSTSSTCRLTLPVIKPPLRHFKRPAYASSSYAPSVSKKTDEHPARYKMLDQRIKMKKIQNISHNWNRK

| Molecule | inhibition of peptide stimulated activity of PDE1A bound to calmodulin beads ([1]; PDE1A bound to calmodulin beads, Gαt-rod peptide stimulated) | inhibition of peptide stimulated PDE activity ([1]; fractions 6 and 11, 1 μM cGMP, 100 μM Gαt-rod peptide) | inhibition of calmodulin stimulated PDE activity ([1]; fractions 6 and 11, 1 μM cGMP, 1 mM CaCl2 and 4 μg/ml CaM) | pIC50 (PDE 1) | stimulation of PDE activity ([1]; fractions 6 and 11, 100 μM peptide, 1 μM cGMP) | stimulation of recombinant PDE activity (PDE1A2) | stimulation of recombinant PDE activity (PDE1A1) | stimulation of recombinant PDE activity (PDE1C3) | stimulation of cGMP hydrolytic activity ([2]; first peak, fractions 6–7) | stimulation of cAMP hydrolysis ([2]; first three peaks (fractions 6–7; 10–12; 13–15)) | stimulation of cAMP hydrolysis ([2]; fourth peak, fractions 19–23 (PDE4)) | stimulation of cGMP hydrolytic activity ([2]; fourth peak, fractions 21–23) | stimulation of cGMP hydrolytic activity ([2]; second peak, fractions 10–12) | stimulation of cGMP hydrolytic activity ([2]; third peak, fractions 13–15) |
| --- | --- | --- | --- | --- | --- | --- | --- | --- | --- | --- | --- | --- | --- | --- |
| CN1C(=O)c2[nH]c(Cc3ccc(C(F)(F)F)cc3)nc2N2C1=N[C@@H]1CCC[C@@H]12 [SCH 51866] | also inhibited peptide stimulated activity of PDE1A bound to calmodulin beads | also inhibited peptide stimulated activity | 90% | 7.00 | – | – | – | – | – | – | – | – | – | – |
| Gαt-rod peptide: peptide corresponding to the PDE effector-interaction-region of rod transducin (residues 293–314 of transducin Gα) (EDAGNYIKVQFLELNMRRDVKE) | – | – | – | – | stimulated | stimulated | stimulated | stimulated | activated | show stimulation | neither Ca^2+/CaM nor Gαt-rod peptide dependent | not stimulated above the basal level | activated | greatest activity when stimulated |
